{"source": "ChEMBL document CHEMBL1151766", "about": "“Engineering stabilized vascular endothelial growth factor-A antagonists: synthesis, structural characterization, and bioactivity of grafted analogues of cyclotides” (J Med Chem, 2008)", "key": {"[1]": {"system": "BaF3", "assay": "Cytotoxicity against VEGF-A induced mouse BAF3-VEGF-R2 cells at >10 uM", "type": "functional, cell-based"}, "[2]": {"assay": "Toxicity in human erythrocytes assessed as hemolytic activity at 50 uM", "type": "cell-based, Erythrocyte", "conditions": "read-out: Activity"}}, "data": [{"molecule": "CC(C)C[C@@H]1NC(=O)CNC(=O)[C@H](CC(N)=O)NC(=O)[C@H](CCCNC(=N)N)NC(=O)[C@H]([C@@H](C)O)NC(=O)[C@H](CS)NC(=O)[C@H](C(C)C)NC(=O)[C@@H]2CCCN2C(=O)[C@H](CCC(=O)O)NC(=O)[C@H](CO)NC(=O)[C@H](CS)NC(=O)[C@H]([C@@H](C)O)NC(=O)[C@H](CS)NC(=O)CNC(=O)[C@@H]2CCCN2C(=O)[C@H]([C@@H](C)O)NC(=O)[C@H](CC(N)=O)NC(=O)[C@H](CS)NC(=O)[C@H]([C@@H](C)O)NC(=O)CNC(=O)CNC(=O)[C@H](C(C)C)NC(=O)[C@H](CS)NC(=O)[C@H]([C@@H](C)O)NC(=O)[C@H](CCC(=O)O)NC(=O)CNC(=O)[C@H](CS)NC(=O)[C@H](C(C)C)NC(=O)[C@@H]2CCCN2C1=O", "values": [{"measurement": "Activity", "setting": "[1]", "value": "Toxic"}]}, {"molecule": "CC(C)C[C@@H]1NC(=O)CNC(=O)[C@H](CC(N)=O)NC(=O)[C@H](CCCNC(=N)N)NC(=O)[C@H]([C@@H](C)O)NC(=O)[C@@H]2CSSC[C@@H]3NC(=O)[C@H]([C@@H](C)O)NC(=O)CNC(=O)CNC(=O)[C@H](C(C)C)NC(=O)[C@@H]4CSSC[C@H](NC(=O)[C@H]([C@@H](C)O)NC(=O)[C@H](CSSC[C@H](NC(=O)[C@H](C(C)C)NC(=O)[C@@H]5CCCN5C1=O)C(=O)NCC(=O)N[C@@H](CCC(=O)O)C(=O)N[C@@H]([C@@H](C)O)C(=O)N4)NC(=O)CNC(=O)[C@@H]1CCCN1C(=O)[C@H]([C@@H](C)O)NC(=O)[C@H](CC(N)=O)NC3=O)C(=O)N[C@@H](CO)C(=O)N[C@@H](Cc1c[nH]c3ccccc13)C(=O)N1CCC[C@H]1C(=O)N[C@@H](C(C)C)C(=O)N2", "note": "[KALATA B1]", "values": [{"measurement": "hemolysis at 50 µM", "setting": "[2]", "value": 50, "unit": "%"}]}]}
